Assay results published in ChEMBL document CHEMBL3997818, “Structure-activity relationship studies of 1-(1'-hydroxyalkyl)rupestonic acid methyl esters against influenza viruses” (Bioorg Med Chem Lett, 2017).
≈ marks a conversion by molar mass, not a printed value.

What was measured:
[1] = Selectivity index, ratio of TC50 for MDCK cells to IC50 for Influenza A virus H1N1 infected in MDCK cells; format: toxicity, cell-based; conditions: dog, read-out: Selectivity Index
[2] = Selectivity index, ratio of TC50 for MDCK cells to IC50 for Influenza A virus H3N2 infected in MDCK cells; format: toxicity, cell-based; conditions: dog, read-out: Selectivity Index
Influenza B virus = test: Antiviral activity against Influenza B virus infected in MDCK cells assessed as inhibition of virus-induced cytopathic effect after 40 hrs; format: functional, cell-based
Influenza A virus = test: Antiviral activity against Influenza A virus H1N1 infected in MDCK cells assessed as inhibition of virus-induced cytopathic effect after 40 hrs; format: functional, cell-based
[3] = Selectivity index, ratio of TC50 for MDCK cells to IC50 for Influenza B virus infected in MDCK cells; format: toxicity, cell-based; conditions: dog, read-out: Selectivity Index
[4] = Cytotoxicity against MDCK cells after 48 hrs by Reed and Muench analysis; format: cell-based, Canis lupus familiaris; conditions: dog, read-out: TC50
Influenza A virus H3N2 = test: Antiviral activity against Influenza A virus H3N2 infected in MDCK cells assessed as inhibition of virus-induced cytopathic effect after 40 hrs; format: functional, cell-based

SMILES | selectivity ratio [1] | selectivity ratio [2] | IC50 (Influenza B virus) [µg/mL] | IC50 (Influenza A virus) [µg/mL] | selectivity ratio [3] | CC50 at 48 h [4] [µg/mL] | IC50 (Influenza A virus H3N2) [µg/mL]
C=C(C(=O)OC)[C@@H]1CC[C@H](C)[C@H]2C(=C(C)C(=O)[C@@H]2[C@H](O)/C=C(\C)CCC=C(C)C)C1 | 1.7 | 2.2 | 1.2 (≈ 2.89 µM) | 2.06 (≈ 4.97 µM) | 3 | 3.56 (≈ 8.59 µM) | 1.6 (≈ 3.86 µM)
C=C(C(=O)OC)[C@@H]1CC[C@H](C)[C@@H]2CC(=O)C(C)=C2C1 |  | 3 | > 18.5 | > 18.5 |  | 55.6 (≈ 212 µM) | 19 (≈ 72.4 µM)
C=C(C(=O)OC)[C@@H]1CC[C@H](C)[C@H]2C(=C(C)C(=O)[C@@H]2[C@@H](C)O)C1 | 5 |  | 72 (≈ 235 µM) | 90 (≈ 294 µM) | 7 | 500 (≈ 1630 µM) | > 167
C=C(C(=O)OC)[C@@H]1CC[C@H](C)[C@H]2C(=C(C)C(=O)[C@@H]2[C@H](O)CC)C1 | 9 |  | 18.5 (≈ 57.8 µM) | 14.4 (≈ 44.8 µM) | 7 | 167 (≈ 520 µM) | > 55.6
C=C(C(=O)OC)[C@@H]1CC[C@H](C)[C@H]2C(=C(C)C(=O)[C@@H]2C(O)c2cc(F)cc(F)c2)C1 (single isomer, unassigned) | 12.2 | 2.2 | 18.5 (≈ 45.8 µM) | 2.63 (≈ 6.5 µM) | 1.7 | 32.1 (≈ 79.3 µM) | 14 (≈ 34.6 µM)
C=C(C(=O)OC)[C@@H]1CC[C@H](C)[C@H]2C(=C(C)C(=O)[C@@H]2C(O)c2cc(OC)c(OC)c(OC)c2)C1 (single isomer, unassigned) | 13 | 3 | > 55.6 | 13 (≈ 28.4 µM) |  | 167 (≈ 363 µM) | 56 (≈ 122 µM)
C=C(C(=O)OC)[C@@H]1CC[C@H](C)[C@H]2C(=C(C)C(=O)[C@@H]2C(O)c2ccc(OC)cc2)C1 (single isomer, unassigned) |  |  | 18.5 (≈ 46.5 µM) | > 18.5 | 4.3 | 80.1 (≈ 201 µM) | > 18.5
C=C(C(=O)OC)[C@@H]1CC[C@H](C)[C@H]2C(=C(C)C(=O)[C@@H]2C(O)c2cccs2)C1 (single isomer, unassigned) |  | 7.5 | > 2.06 | > 2.06 |  | 8.9 (≈ 23.8 µM) | 1.19 (≈ 3.18 µM)
C=C(C(=O)OC)[C@@H]1CC[C@H](C)[C@H]2C(=C(C)C(=O)[C@@H]2C(O)c2ccc(F)cc2)C1 (single isomer, unassigned) | 4.3 |  | 11 (≈ 28.5 µM) | 19 (≈ 49.2 µM) | 7.5 | 80.1 (≈ 207 µM) | > 18.5
C=C(C(=O)OC)[C@@H]1CC[C@H](C)[C@H]2C(=C(C)C(=O)[C@@H]2C(O)c2cc(Cl)cc(Cl)c2)C1 (single isomer, unassigned) |  | 1.7 | > 6.17 | > 6.17 |  | 10.7 (≈ 24.4 µM) | 6 (≈ 13.7 µM)
C=C(C(=O)OC)[C@@H]1CC[C@H](C)[C@H]2C(=C(C)C(=O)[C@@H]2C(O)c2ccccc2)C1 (single isomer, unassigned) | 2.1 | 2.1 | > 6.17 | 6.17 (≈ 16.7 µM) |  | 12.8 (≈ 34.8 µM) | 6 (≈ 16.3 µM)
C=C(C(=O)OC)[C@@H]1CC[C@H](C)[C@H]2C(=C(C)C(=O)[C@@H]2C(O)c2ccc([N+](=O)[O-])s2)C1 (single isomer, unassigned) | 2.7 |  | 2.06 (≈ 4.91 µM) | 1.6 (≈ 3.81 µM) | 2.1 | 4.28 (≈ 10.2 µM) | > 2.06
C=C(C(=O)OC)[C@@H]1CC[C@H](C)[C@H]2C(=C(C)C(=O)[C@@H]2C(O)c2cc(C(F)(F)F)cc(C(F)(F)F)c2)C1 (single isomer, unassigned) | 3 | 1.7 | > 18.5 | 11 (≈ 21.8 µM) |  | 32.1 (≈ 63.6 µM) | 18.5 (≈ 36.7 µM)
C=C(C(=O)OC)[C@@H]1CC[C@H](C)[C@H]2C(=C(C)C(=O)[C@@H]2C(O)c2ccncc2)C1 (single isomer, unassigned) | 7.5 |  | 18.5 (≈ 50.1 µM) | 10.7 (≈ 28.9 µM) | 4.3 | 80.1 (≈ 217 µM) | > 18.5
C=C(C(=O)OC)[C@@H]1CC[C@H](C)[C@H]2C(=C(C)C(=O)[C@@H]2C(O)c2ccc(N(C)C)cc2)C1 (single isomer, unassigned) | 3 | 1.7 | > 18.5 | 10.7 (≈ 26 µM) |  | 32.1 (≈ 78 µM) | 18.5 (≈ 45 µM)
C=C(C(=O)OC)[C@@H]1CC[C@H](C)[C@H]2C(=C(C)C(=O)[C@@H]2C(O)c2ccc(OC(F)(F)F)cc2)C1 (single isomer, unassigned) |  | 1.7 | > 18.5 | > 18.5 |  | 32.1 (≈ 70.9 µM) | 18 (≈ 39.8 µM)
CCOC(=O)C1=C[C@@H](OC(CC)CC)[C@H](NC(C)=O)[C@@H](N)C1 [OSELTAMIVIR] |  |  |  | 3.9 (≈ 12.5 µM) |  |  | 1.7 (≈ 5.44 µM)
C=C(C(=O)O)[C@@H]1CC[C@H](C)[C@@H]2CC(=O)C(C)=C2C1 [PECHUELOIC ACID] | 4.3 | 4.3 | 24 (≈ 96.6 µM) | 55.6 (≈ 224 µM) | 10 | 240 (≈ 968 µM) | 55.6 (≈ 224 µM)
NC(=O)c1ncn([C@@H]2O[C@H](CO)[C@@H](O)[C@H]2O)n1 [RIBAVIRIN] | 560 | 1100 | 0.8 (≈ 3.28 µM) | 2.1 (≈ 8.6 µM) | 1400 |  | 1.1 (≈ 4.5 µM)
